Test results as given in ChEMBL document CHEMBL1201862, “PubChem BioAssay data set” (2004).
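48-hour exposure; five concentrations; linearly interpolated endpoints. GI50: concentration for 50% inhibition of growth.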 Calls of active or inactive are those of the source. Cut-off read from the data, not from the text of the source: active = GI50 up to about 1.1 µM and inactive = higher.

Assays:
Assay in all cases: NCI-60 cell line screen, 48 h
[1] = system: SF-539
[2] = system: SN12C
[3] = system: UACC-62
[4] = system: OVCAR-8
[5] = system: M14
[6] = system: SK-OV-3
[7] = system: MCF7
[8] = system: CCRF-CEM
[9] = system: NCI-H23
[10] = system: K562
[11] = system: NCI-H460
[12] = system: HT-29
[13] = system: HCT-15
[14] = system: HCT-116
[15] = system: BT-549
[16] = system: RXF 393
[17] = system: PC-3
[18] = system: RPMI-8226
[19] = system: MDA-MB-435
[20] = system: MDA-N
[21] = system: SNB-75
[22] = system: IGROV-1
[23] = system: U-251
[24] = system: CAKI-1
[25] = system: SF-295
[26] = system: MDA-MB-231
[27] = system: HOP-92
[28] = system: UO-31
[29] = system: NCI-H522
[30] = system: EKVX
[31] = system: ACHN
[32] = system: HOP-62
[33] = system: SF-268
[34] = system: SK-MEL-5
[35] = system: SW-620
[36] = system: SR
[37] = system: MOLT-4
[38] = system: KM12
[39] = system: COLO 205
[40] = system: HL-60
[41] = system: NCI-H226
[42] = system: SK-MEL-2
[43] = system: DU-145
[44] = system: T47D
[45] = system: A549
[46] = system: OVCAR-3
[47] = system: LOX IMVI
[48] = system: SK-MEL-28
[49] = system: Hs-578T
[50] = system: TK-10
[51] = system: NCI/ADR-RES
[52] = system: UACC-257
[53] = system: SNB-19
[54] = system: 786-0
[55] = system: HCC 2998
[56] = system: A498
[57] = system: OVCAR-5
[58] = system: OVCAR-4
[59] = system: Malme-3M

## Cc1ccc2cc3c(ccc4ccccc43)c3c2c1CC3 [3-METHYLCHOLANTHRENE]
[1]
  GI50: > 100 µM (inactive)
[2]
  GI50: > 100 µM (inactive)
[3]
  GI50: > 100 µM (inactive)
[4]
  GI50: > 100 µM (inactive)
[5]
  GI50: > 100 µM (inactive)
[6]
  GI50: > 100 µM (inactive)
[7]
  GI50: 0.159 µM (active)
[8]
  GI50: > 100 µM (inactive)
[9]
  GI50: > 100 µM (inactive)
[10]
  GI50: > 100 µM (inactive)
[11]
  GI50: > 100 µM (inactive)
[12]
  GI50: > 100 µM (inactive)
[13]
  GI50: 9.82 µM
[14]
  GI50: > 100 µM (inactive)
[15]
  GI50: > 100 µM (inactive)
[16]
  GI50: > 100 µM (inactive)
[17]
  GI50: > 100 µM (inactive)
[18]
  GI50: > 100 µM (inactive)
[19]
  GI50: > 100 µM (inactive)
[20]
  GI50: > 100 µM (inactive)
[21]
  GI50: > 100 µM (inactive)
[22]
  GI50: > 100 µM (inactive)
[23]
  GI50: > 100 µM (inactive)
[24]
  GI50: > 100 µM (inactive)
[25]
  GI50: > 100 µM (inactive)
[26]
  GI50: > 100 µM (inactive)
[27]
  GI50: > 100 µM (inactive)
[28]
  GI50: > 100 µM (inactive)
[29]
  GI50: > 100 µM (inactive)
[30]
  GI50: 75.5 µM (inactive)
[31]
  GI50: > 100 µM (inactive)
[32]
  GI50: > 100 µM (inactive)
[33]
  GI50: > 100 µM (inactive)
[34]
  GI50: > 100 µM (inactive)
[35]
  GI50: > 100 µM (inactive)
[36]
  GI50: > 100 µM (inactive)
[37]
  GI50: > 100 µM (inactive)
[38]
  GI50: > 100 µM (inactive)
[39]
  GI50: > 100 µM (inactive)
[40]
  GI50: > 100 µM (inactive)
[41]
  GI50: > 100 µM (inactive)
[42]
  GI50: > 100 µM (inactive)
[43]
  GI50: > 100 µM (inactive)
[44]
  GI50: > 100 µM (inactive)
[45]
  GI50: > 100 µM (inactive)
[46]
  GI50: > 100 µM (inactive)
[47]
  GI50: > 100 µM (inactive)
[48]
  GI50: > 100 µM (inactive)
[49]
  GI50: 83.9 µM (inactive)
[50]
  GI50: > 100 µM (inactive)
[51]
  GI50: > 100 µM (inactive)
[52]
  GI50: > 100 µM (inactive)
[53]
  GI50: > 100 µM (inactive)
[54]
  GI50: > 100 µM (inactive)
[55]
  GI50: > 100 µM (inactive)

## CC(=O)Oc1ccc(/C=C/C(=O)O[C@@H](C)[C@H](C)OC(=O)/C=C/c2ccc(OC(C)=O)c(OC(C)=O)c2)cc1OC(C)=O
[1]
  GI50: > 100 µM (inactive)
[2]
  GI50: 19.6 µM (inactive)
[3]
  GI50: 8.41 µM (inactive)
[4]
  GI50: 11.5 µM (inactive)
[56]
  GI50: 24.7 µM (inactive)
[5]
  GI50: 11.4 µM (inactive)
[6]
  GI50: 19.5 µM (inactive)
[7]
  GI50: 20 µM (inactive)
[8]
  GI50: 3.94 µM (inactive)
[9]
  GI50: 6.5 µM (inactive)
[10]
  GI50: 3.99 µM (inactive)
[11]
  GI50: 5.94 µM (inactive)
[13]
  GI50: 6.31 µM
[14]
  GI50: 7.5 µM (inactive)
[15]
  GI50: 10 µM (inactive)
[16]
  GI50: 13.6 µM (inactive)
[17]
  GI50: 23.1 µM (inactive)
[18]
  GI50: 4.75 µM (inactive)
[19]
  GI50: 12.2 µM (inactive)
[20]
  GI50: 11.1 µM (inactive)
[57]
  GI50: 21.2 µM (inactive)
[21]
  GI50: 20.1 µM (inactive)
[22]
  GI50: 5.75 µM (inactive)
[23]
  GI50: 17.1 µM (inactive)
[24]
  GI50: 27.3 µM (inactive)
[25]
  GI50: 11.2 µM (inactive)
[26]
  GI50: 39.9 µM (inactive)
[27]
  GI50: 20.2 µM (inactive)
[28]
  GI50: 5.94 µM (inactive)
[29]
  GI50: 6.37 µM (inactive)
[30]
  GI50: 22.9 µM (inactive)
[31]
  GI50: 11.4 µM (inactive)
[32]
  GI50: 7.45 µM (inactive)
[33]
  GI50: 18.4 µM (inactive)
[34]
  GI50: 10.6 µM (inactive)
[35]
  GI50: 2.42 µM (inactive)
[36]
  GI50: 5.77 µM (inactive)
[37]
  GI50: 2.22 µM (inactive)
[38]
  GI50: 9.46 µM (inactive)
[58]
  GI50: 28.7 µM (inactive)
[39]
  GI50: 29.5 µM (inactive)
[59]
  GI50: 22.9 µM (inactive)
[42]
  GI50: 19.7 µM (inactive)
[43]
  GI50: 21.9 µM (inactive)
[44]
  GI50: 13 µM (inactive)
[45]
  GI50: 13.8 µM (inactive)
[46]
  GI50: 5.15 µM (inactive)
[47]
  GI50: 6.61 µM (inactive)
[48]
  GI50: 15.3 µM (inactive)
[49]
  GI50: 11 µM (inactive)
[50]
  GI50: 21.2 µM (inactive)
[51]
  GI50: 22.2 µM (inactive)
[52]
  GI50: 18.7 µM (inactive)
[53]
  GI50: 18.9 µM (inactive)
[54]
  GI50: 12.1 µM (inactive)
[55]
  GI50: 11.4 µM (inactive)
